Values quoted from earlier work as cited in PMC9705454 (Clinical Drug Investigation, 2022).

Key:
[1] = metabolite slowly released from the subcutaneous depot

half-life in circulation	Substance	share of plasma exposure accounted for by the main active metabolite [1]
approximately 2 h	teduglutide	
	insulin glargine	> 90%
